One test deals with HCV replicon genotype 1a. The test can be described thus: HCV replicon assay, genotype 1a (cell ELISA for NS3/4A). The test is classed as cell-based, hepatitis C virus. Here is the method:
(§1) The HCV NS5B inhibitory activity of the present compounds may be tested using assays known in the art. The HCV NS5B polymerase inhibitors described herein have activities in a genotype 1b replicon assay as described in the Examples. The assay is performed by incubating a replicon harboring cell-line in the presence of inhibitor for a set period of time and measuring the effect of the inhibitor on HCV replicon replication either directly by quantifying replicon RNA level, or indirectly by measuring enzymatic activity of a co-encoded reporter enzyme such as luciferase or β-lactamase. By performing a series of such measurements at different inhibitor concentrations, the effective inhibitory concentration of the inhibitor (EC50 or EC90) is determined. See Jan M. Vrolijk et al., A replicons-based bioassay for the measurement of interferons in patients with chronic hepatitis C, 110 J. VIROLOGICAL METHODS 201 (2003). Such assays may also be run in an automated format for high through-put screening. See Paul Zuck et al., A cell-based β-lactamase reporter gene assay for the identification of inhibitors of hepatitis C virus replication, 334 ANALYTICAL BIOCHEMISTRY 344 (2004).
(§2) Measurement of inhibition by compounds was performed using the HCV replicon system. Several different replicons encoding different HCV genotypes or mutations were used. In addition, potency measurements were made using different formats of the replicon assay, including different ways of measurements and different plating formats. See Jan M. Vrolijk et al., A replicons-based bioassay for the measurement of interferons in patients with chronic hepatitis C, 110 J. VIROLOGICAL METHODS 201 (2003); Steven S. Carroll et al., Inhibition of Hepatitis C Virus RNA Replication by 2′-Modified Nucleoside Analogs, 278(14) J. BIOLOGICAL CHEMISTRY 11979 (2003). However, the underlying principles are common to all of these determinations, and are outlined below.
(§3) Stable neomycin phosphotransferase encoding replicons-harboring cell lines were used, so all cell lines were maintained under G418 selection prior to the assay. Potency was deteremined using a cell ELISA assay with an antibody to the replicons encoded NS3/4a protease. See Caterina Trozzi et al., In Vitro Selection and Characterization of Hepatitis C Virus Serine Protease Variants Resistant to an Active-Site Peptide Inhibitor, 77(6) J. Virol. 3669 (2003). To initiate an assay, replicon cells were plated in the presence of a dilution series of test compound in the absence of G418. Typically, the assays were performed in a 96-well plate formate for manual operation, or a 384-well plate format for automated assay. Replicon cells and compound were incubated for 96 hours. At the end of the assay, cells were washed free of media and compound, and the cells were then lysed. RNA was quantified indirectly through detection of replicon-encoded NS3/4A protein levels, through an ELISA-based assay with an antibody specific for NS3/4A. IC50 determinations were calculated as a percentage of a DMSO control by fitting the data to a four-parameter fit function and the data obtained is provided in the table below.
(§4) Data for selected compounds of the present invention was obtained for genotypes 1a and 1b using this method and is provided in the table below: […]
In general terms: Replicon systems follow genome replication, usually without infectious particles.

Another test has as its system HCV replicon genotype 1b. The test can be described thus: HCV replicon assay, genotype 1b (cell ELISA for NS3/4A). The test is classed as cell-based, hepatitis C virus. The method, then:
as §1, §2, §3, §4

[1] abbreviates: Hepatitis C virus, 96 h, read-out: 1a IC50 (nM), HCV genotype 1a replicon cells, 96 hours incubation, NS3/4A ELISA readout, % of DMSO control.
Setting [2] is: Hepatitis C virus, 96 h, read-out: 1b IC50 (nM), HCV genotype 1b replicon cells, 96 hours incubation, NS3/4A ELISA readout, % of DMSO control.
[3] abbreviates: read-out: 1a IC50, HCV genotype 1a replicon cells, 96 hours incubation, NS3/4A ELISA readout, % of DMSO control.
Setting [4] is: read-out: 1b IC50, HCV genotype 1b replicon cells, 96 hours incubation, NS3/4A ELISA readout, % of DMSO control.

SMILES strings stand for the structures. Where two headings read alike, the source gives them in different places.

For the compound `CNC(=O)c1c(-c2ccc(F)cc2)oc2cc(N(C)S(C)(=O)=O)c([C@@H]3CCCN(C(=O)c4cc5ncccc5[nH]4)C3)cc12` [Example 65, 2-(4-fluorophenyl)-N-methyl-6-[methyl(methylsulfonyl)amino]-5-[1-(1H-pyrrolo[3,2-b]pyridin-2-ylcarbonyl)piperidin-3-yl]-1-benzofuran-3-carboxamide], the IC50 in the test with HCV replicon genotype 1a (setting [1]) was 140 nM; with HCV replicon genotype 1b (setting [2]), 46.3 nM.

Turning to `CNC(=O)c1c(-c2ccc(F)cc2)oc2cc(N(C)S(C)(=O)=O)c([C@@H]3CCCN(C(=O)c4cc(-c5ccc(F)cc5)n[nH]4)C3)cc12` [Example 73, 2-(4-fluorophenyl)-5-(1-{[3-(4-fluorophenyl)-1H-pyrazol-5-yl]carbonyl}piperidin-3-yl)-N-methyl-6-[methyl(methylsulfonyl)amino]-1-benzofuran-3-carboxamide], the IC50 in the test on HCV replicon genotype 1a (setting [1]) is 50.5 nM; in the test with HCV replicon genotype 1b (setting [2]), 23.4 nM.

`CNC(=O)c1c(-c2ccc(F)cc2)oc2cc(N(C)S(C)(=O)=O)c([C@@H]3CCCN(c4nc5ccccc5[nH]4)C3)cc12` (single isomer, unassigned) [Example 46, 5-(1-(1H-benzo[d]imidazol-2-yl)piperidin-3-yl)-2-(4-fluorophenyl)-N-methyl-6-(N-methylmethylsulfonamido)benzofuran-3-carboxamide]: the IC50 worked out at 11.9 nM in the test on HCV replicon genotype 1a (setting [3]) and 9.47 nM with HCV replicon genotype 1b (setting [4]).

As to `CNC(=O)c1c(-c2ccc(F)cc2)oc2cc(N(C)S(C)(=O)=O)c([C@@H]3CCCN(S(=O)(=O)c4c(Cl)nc5sccn45)C3)cc12` [Example 118, 5-{(3S)-1-[(6-chloroimidazo[2,1-b][1,3]thiazol-5-yl)sulfonyl]piperidin-3-yl}-2-(4-fluorophenyl)-N-methyl-6-[methyl(methylsulfonyl)amino]-1-benzofuran-3-carboxamide], the IC50 with HCV replicon genotype 1a (setting [1]) was determined as 41 nM; in the test on HCV replicon genotype 1b (setting [2]), 8.36 nM.

With `CNC(=O)c1c(-c2ccc(F)cc2)oc2cc(N(C)S(C)(=O)=O)c([C@@H]3CCCN(S(=O)(=O)c4ccccc4C)C3)cc12` [Example 111, 2-(4-fluorophenyl)-N-methyl-6-[methyl(methylsulfonyl)amino]-5-{(3S)-1-[(2-methylphenyl)sulfonyl]piperidin-3-yl}-1-benzofuran-3-carboxamide], the results for the IC50 with HCV replicon genotype 1a (setting [1]) and with HCV replicon genotype 1b (setting [2]) were 68.1 nM and 17.2 nM, respectively.

Consider `CNC(=O)c1c(-c2ccc(F)cc2)oc2cc(N(C)S(C)(=O)=O)c([C@@H]3CCCN(S(=O)(=O)CCc4ccccc4)C3)cc12` [Example 124, 2-(4-fluorophenyl)-N-methyl-6-[methyl(methylsulfonyl)amino]-5-{(3S)-1-[(2-phenylethyl)sulfonyl]piperidin-3-yl}-1-benzofuran-3-carboxamide], for which the IC50 in the test with HCV replicon genotype 1a (setting [1]) worked out at 182 nM; in the test on HCV replicon genotype 1b (setting [2]), 72.9 nM.

As for `CNC(=O)c1c(-c2ccc(F)cc2)oc2cc(N(C)S(C)(=O)=O)c([C@@H]3CCCN(S(=O)(=O)c4cnc5n4CCCCC5)C3)cc12` [Example 125, 2-(4-fluorophenyl)-N-methyl-6-[methyl(methylsulfonyl)amino]-5-[(3S)-1-(6,7,8,9-tetrahydro-5H-imidazo[1,2-a]azepin-3-ylsulfonyl)piperidin-3-yl]-1-benzofuran-3-carboxamide], the IC50 is 172 nM with HCV replicon genotype 1a (setting [1]) and 67.6 nM in the test with HCV replicon genotype 1b (setting [2]).

`CNC(=O)c1c(-c2ccc(F)cc2)oc2cc(N(C)S(C)(=O)=O)c([C@@H]3CCCN(c4nc5ncccc5o4)C3)cc12` (single isomer, unassigned) [Example 53, 2-(4-fluorophenyl)-N-methyl-6-(N-methylmethylsulfonamido)-5-(1-(oxazolo[4,5-b]pyridin-2-yl)piperidin-3-yl)benzofuran-3-carboxamide]: the results for the IC50 in the test on HCV replicon genotype 1a (setting [1]) and in the test on HCV replicon genotype 1b (setting [2]) were 14.6 nM and 15.7 nM, respectively.

Take `CNC(=O)c1c(-c2ccc(F)cc2)oc2cc(N(C)S(C)(=O)=O)c([C@@H]3CCCN(C(=O)c4cc5c(OC)cccc5[nH]4)C3)cc12` [Example 64, 2-(4-fluorophenyl)-5-{1-[(4-methoxy-1H-indol-2-yl)carbonyl]piperidin-3-yl}-N-methyl-6-[methyl(methylsulfonyl)amino]-1-benzofuran-3-carboxamide]: the IC50 in the test with HCV replicon genotype 1a (setting [1]) came to 135 nM; in the test on HCV replicon genotype 1b (setting [2]), 40.7 nM.

For `CNC(=O)c1c(-c2ccc(F)cc2)oc2cc(N(C)S(C)(=O)=O)c([C@@H]3CCCN(C(=O)c4cc5sccc5n4C)C3)cc12` [Example 74, 2-(4-fluorophenyl)-N-methyl-6-[methyl(methylsulfonyl)amino]-5-{1-[(4-methyl-4H-thieno[3,2-b]pyrrol-5-yl)carbonyl]piperidin-3-yl}-1-benzofuran-3-carboxamide], the IC50 came to 54.8 nM with HCV replicon genotype 1a (setting [1]) and 43.4 nM in the test on HCV replicon genotype 1b (setting [2]).

Regarding `CNC(=O)c1c(-c2ccc(F)cc2)oc2cc(N(C)S(C)(=O)=O)c([C@@H]3CCCN(S(=O)(=O)Cc4ccccc4)C3)cc12` [Example 121, 5-[(3S)-1-(benzylsulfonyl)piperidin-3-yl]-2-(4-fluorophenyl)-N-methyl-6-[methyl(methylsulfonyl)amino]-1-benzofuran-3-carboxamide], the IC50 with HCV replicon genotype 1a (setting [1]) came to 47.5 nM; in the test on HCV replicon genotype 1b (setting [2]), 23.8 nM.

Turning to `CNC(=O)c1c(-c2ccc(F)cc2)oc2cc(N(C)S(C)(=O)=O)c([C@H]3CCCN(C(=O)C(c4ccccc4)c4ccccc4)C3)cc12` [Example 108, 5-[(3R)-1-(diphenylacetyl)piperidin-3-yl]-2-(4-fluorophenyl)-N-methyl-6-[methyl(methylsulfonyl)amino]-1-benzofuran-3-carboxamide], the IC50 amounted to 266 nM with HCV replicon genotype 1a (setting [1]) and 53 nM with HCV replicon genotype 1b (setting [2]).

Take `CNC(=O)c1c(-c2ccc(F)cc2)oc2cc(N(C)S(C)(=O)=O)c([C@H]3CCCN(C(=O)c4nc5ncccc5[nH]4)C3)cc12` [Example 36, (R)-5-(1-(1H-imidazo[4,5-b]pyridine-2-carbonyl)piperidin-3-yl)-2-(4-fluorophenyl)-N-methyl-6-(N-methylmethylsulfonamido)benzofuran-3-carboxamide]: the IC50 was 269 nM in the test on HCV replicon genotype 1a (setting [1]) and 286 nM with HCV replicon genotype 1b (setting [2]).

In the case of `CNC(=O)c1c(-c2ccc(F)cc2)oc2cc(N(C)S(C)(=O)=O)c([C@@H]3CCCN(c4ncc(-c5ccc(F)cc5)o4)C3)cc12` (single isomer, unassigned) [Example 58, 2-(4-fluorophenyl)-5-(1-(5-(4-fluorophenyl)oxazol-2-yl)piperidin-3-yl)-N-methyl-6-(N-methylmethylsulfonamido)benzofuran-3-carboxamide], the IC50 amounted to 132 nM with HCV replicon genotype 1a (setting [3]) and 36.1 nM in the test with HCV replicon genotype 1b (setting [4]).

On to `CNC(=O)c1c(-c2ccc(F)cc2)oc2cc(N(C)S(C)(=O)=O)c([C@H]3CCCN(C(=O)c4cc5cc(F)ccc5n4C)C3)cc12` [Example 85, 5-{(3R)-1-[(5-fluoro-1-methyl-1H-indol-2-yl)carbonyl]piperidin-3-yl}-2-(4-fluorophenyl)-N-methyl-6-[methyl(methylsulfonyl)amino]-1-benzofuran-3-carboxamide], for which the figures for the IC50 with HCV replicon genotype 1a (setting [1]) and with HCV replicon genotype 1b (setting [2]) were 26 nM and 12.5 nM, respectively.

Take `CNC(=O)c1c(-c2ccc(F)cc2)oc2cc(N(C)S(C)(=O)=O)c([C@@H]3CCCN(C(=O)c4coc(-c5ccc(F)cc5)n4)C3)cc12` [Example 72, 2-(4-fluorophenyl)-5-(1-{[2-(4-fluorophenyl)-1,3-oxazol-4-yl]carbonyl}piperidin-3-yl)-N-methyl-6-[methyl(methylsulfonyl)amino]-1-benzofuran-3-carboxamide]: the IC50 worked out at 125 nM in the test with HCV replicon genotype 1a (setting [1]) and 23.6 nM with HCV replicon genotype 1b (setting [2]).
